Source: patent US7060712B2, “Crystalline form of aryl aniline β2 adrenergic receptor agonist” (Theravance, Inc., priority 2003, dated 2006)

Test: Solid state stability testing on storage
Format: physicochemical
Method: Samples (20 and 80 mg each) of the Form A material produced by the process of Example 7 were stored at 25° C. and 60% relative humidity and at 40° C. and 75% relative humidity in open containers and in closed containers.
X-ray powder diffraction patterns were obtained with a Shimadzu 6000 diffractometer using Cu Kα (40.0 kV, 35.0 mA) radiation. The analysis was performed with the goniometer running in continuous-scan mode of 2°/min with a step size of 0.020 over a range of 4 to 45°. Samples were prepared on glass specimen holders as a thin layer of powdered material. The instruments was calibrated to a silicon metal standard.
Differential scanning calorimetry traces were obtained with a TA instruments model DSCQ10. Samples were placed in sealed aluminum pans for analysis with an empty pan serving as the reference. Samples were equilibrated at 30° C. and heated at 5° C. per minute to a temperature of 300° C. The instrument was calibrated with an indium standard.
Thermogravimetric analysis was conducted using a TA instruments model Q50. Samples were weighed in aluminum pans and heated from 30° C. to 300° C. at a rate of 5° C./min.
HPLC analysis was performed using reverse phase conditions and a gradient of 2% to 90% acetonitrile over 6 minutes. Solvents contain 0.1% trifluoroacetic acid. Column: Zorbax 2.1×50 mm, flow rate 0.5 mL/min, observed wavelength 214 nm.

[1] = solid stored four weeks at 25° C. and 60% relative humidity in closed containers

With COc1ccc(Nc2ccc(CCNC[C@H](O)c3ccc(O)c4[nH]c(=O)ccc34)cc2)cc1-c1ccccc1.Cl [Form A, N-{2-[4-(3-phenyl-4-methoxyphenyl)aminophenyl]ethyl}-(R)-2-hydroxy-2-(8-hydroxy-2(1H)-quinolinon-5-yl)ethylamine monohydrochloride water/isopropanol solvate] the “stability upon storage (HPLC degradant peaks; DSC, TGA and XRPD traces)” value (four weeks at 25° C. and 60% humidity in closed containers) was “stable”, the “changes in analysis by DSC and TGA” value [1] was “no detectable differences” and the “chemical degradation, analysis by HPLC” value [1] was “no detectable chemical degradation”. For the same molecule, the “solvent content on storage in open containers” value (solid stored in open containers over four weeks (25° C./60% RH and 40° C./75% RH)) was “loss of isopropanol”.
